Data taken from publication PMC6365201 (Organic & biomolecular chemistry, 2019).

Target: FrbG (Streptomyces rubellomurinus, UniProt Q0ZQ42, H221A)
Experiment: NADPH oxidation at […] nm
Assay type: biochemical
Conditions: 500 μM substrate; 200 μM NADPH; 5 μM enzyme; 50 mM HEPES

FrbG, sequence (Q0ZQ42 whole entry H221A): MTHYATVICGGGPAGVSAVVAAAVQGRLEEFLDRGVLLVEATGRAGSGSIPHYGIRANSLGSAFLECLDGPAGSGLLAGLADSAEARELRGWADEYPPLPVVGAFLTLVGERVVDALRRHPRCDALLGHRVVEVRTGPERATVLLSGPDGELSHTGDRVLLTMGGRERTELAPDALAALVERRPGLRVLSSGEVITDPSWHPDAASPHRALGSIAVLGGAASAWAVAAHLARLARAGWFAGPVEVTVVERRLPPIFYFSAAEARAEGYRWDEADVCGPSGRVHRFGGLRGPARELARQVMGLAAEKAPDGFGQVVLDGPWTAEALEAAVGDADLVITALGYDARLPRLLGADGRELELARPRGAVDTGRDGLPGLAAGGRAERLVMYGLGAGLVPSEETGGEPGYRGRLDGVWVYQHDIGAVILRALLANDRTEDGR

**Q.** How did the “NADPH oxidation at 340 nm” value turn out when `NCCCP(=O)(O)OP(=O)(O)OC[C@H]1O[C@@H](n2ccc(N)nc2=O)[C@H](O)[C@@H]1O` [compound 4, CMP-5’-3APn] was run?
**A.** FrbG-H221A had significantly higher rates for both NADPH oxidation and substrate hydroxylation
